Experimental data taken from patent US20220265591A1, “USE OF AN OSMOLYTE IN MANUFACTURE OF A MEDICAMENT FOR TREATMENT OF OCULAR DISORDERS” (SINGAPORE HEALTH SERVICES PTELTD, priority 2019, published 2022).
Like-named read-outs stand apart in the source and are kept apart here.

How the values were obtained:
[1] = molecular target: T1, TGFBIp611-633 G623R peptide (Homo sapiens, UniProt Q15582, G623R); assay: ThT fluorescence assay, inhibition of amyloid fibrillation; format: biochemical; conditions: for inhibition at 200000 µM: 200 mM
T1 construct: The 23-amino acid long peptide (TGFBIp 611-633 c.623 G>R) from the 4th FAS1 domain; purchased Synpeptide Co Ltd, Shanghai, China; host or cells: synthetic peptide
Description: The 23-amino acid long peptide (TGFBIp 611-633 c.623 G>R) from the 4th FAS1 domain of TGFBIp with the substitution, G623→R ([…]) that rapidly formed amyloid fibrils was used in this study. The peptide was dissolved (0.6 mg/ml) in PBS and allowed to form amyloid fibrils in 50 ml Falcon tubes in a shaking incubator at 37° C. and 180 rpm with and without the addition of osmolytes. […] The TGFBIp^611-633 G623R peptide incubated with PBS was used as a control.
The peptide samples collected at various time points above were treated with 30 μM Thioflavin T (ThT) (Sigma-Aldrich Inc., MO, USA) in PBS buffer at pH 5.5 in a 96-well microplate (Greiner Bio-One, Frickenhausen, Germany) for ThT fluorescence assay. The microplate was excited at 445 nm and the resulting emission fluorescence at 485 nm was measured using a microplate reader (Tecan Infinite M200 Pro, CA, USA).
Percentage inhibition for each osmolyte treatment was calculated by subtracting the baseline fluorescent intensity without the peptides and compounds from the observed fluorescent intensity of each treatment well. The fluorescent intensities per osmolyte treatment were normalized against the untreated fluorescent intensity per time point and expressed as a percentage.
The TGFBIp^611-633 G623R peptides were treated with 200 mM and 320 mM of taurine for up to 72 hours, respectively, the results of which are illustrated in FIG. 11. The TGFBIp^611-633 N622K peptides were treated with 200 mM and 320 mM of taurine for up to 240 hours, respectively, the results of which are illustrated in FIG. 12. The peptides incubated with PBS were used as controls.
The peptide samples were collected at 24 h, 48 h and 72 h after treatment for TGFBIp^611-633 G623R peptides and at 120 h, 144 h and […] after treatment for the TGFBIp^611-633 N622K peptides. The samples were then treated with 30 μM ThT in PBS buffer at pH 5.5 in a 96-well microplate for ThT fluorescence assay. The microplate was excited at 445 nm and the resulting emission fluorescence at 485 nm was measured using a microplate reader.

[2] = molecular target: T2, preformed amyloid fibrils from TGFBIp611-633 G623R peptide (Homo sapiens, UniProt Q15582, G623R); assay: Circular Dichroism assay (θ[218]), disaggregation of preformed amyloid fibrils; format: biochemical; conditions: for inhibition at 200000 µM / disruption of the β-sheet structure compared among the four osmolytes, CD: preformed fibrils; for inhibition at 200000 µM: read-out: % Inhibition (mean ± SD) n = 3, θ[218] of preformed amyloid fibrils, circular dichroism; for % Dissolution at final time point, CD: TGFBIp-G623R preformed fibrils, listed as taurine
T2 construct: The 23-amino acid long peptide (TGFBIp 611-633 c.623 G>R) from the 4th FAS1 domain; purchased Synpeptide Co Ltd, Shanghai, China; host or cells: synthetic peptide
Description: Circular Dichroism (CD) spectroscopy was performed to study the disaggregation of the preformed amyloid fibrils. […] The treatment solutions were studied by far UV-CD assay.
Circular Dichroism (CD) spectroscopy was performed to study the disaggregation of the preformed amyloid fibrils. The preformed amyloid fibrils were treated with taurine at a concentration of 200 mM and 320 mM in PBS buffer at pH 7.0 for 24 h, 48 h and 72 respectively. The treatment solutions were studied by far UV-CD assay.

[3] = molecular target: T2, preformed amyloid fibrils from TGFBIp611-633 G623R peptide; assay: ThT fluorescence microscopy, disaggregation of preformed amyloid fibrils; conditions: 200 mM and 320 mM
Description: The ability of osmolytes to disaggregate the preformed amyloid fibrils were investigated further by fluorescence microscopy after ThT staining. The peptide samples collected at the various time points above were incubated at a ratio of 1:1 ratio of thpeptide solution to ThT in the dark for 30 minutes to obtain solutions for fluorescence microscopy. 25 μl of the solutions were taken on to slides with coverslips and visualized under a fluorescent microscope. Three representative images from each time point under a given condition was used for the quantitation of fluorescence. Image J software was used to quantify the signal from the images and the values for each time point per osmolyte treatment were normalised to the untreated sample at that particular time point.
The inhibition effect of taurine on the preformed amyloid fibrils was investigated further by fluorescence microscopy after ThT staining. The samples collected at the various time points above were incubated ThT at a ratio of 1:1 ratio in the dark for 30 minutes to obtain solutions for fluorescence microscopy. 25 μl of the solutions were taken on to slides with coverslips and visualized under a fluorescent microscope.

[4] = molecular target: T3, preformed amyloid fibrils from TGFBIp611-633 N622K peptide (Homo sapiens, UniProt Q15582, N622K); assay: ThT fluorescence assay, dissolution of preformed amyloid fibrils; format: biochemical; conditions: TGFBIp-N622K preformed fibrils
T3 construct: purchased Synpeptide Co Ltd, Shanghai, China; host or cells: synthetic peptide
Description: The model peptides TGFBIp^611-633 G623R and TGFBIp^611-633 N622K were incubated in PBS for 24 hours for the TGFBIp^611-633 G623R peptide and 96 hours for the TGFBIp^611-633 N622K peptide, allowed to form uniform amyloid fibrils. The formation of amyloid fibrils was confirmed by (SEM) and CD spectroscopy.
The preformed amyloid fibrils were treated with taurine at a concentration of 200 mM and 320 mM for up to 72 hours, respectively. The preformed amyloid fibrils incubated with PBS were used as controls.
The samples were collected at 24 h, 48 h and 72 h after treatment for the TGFBIp^611-633 G623R peptides, and at 24 h, 48 h, 96 h and 144 h after treatment for the TGFBIp^611-633 N622K peptides. The samples were then treated with 30 μM ThT in PBS buffer at pH 5.5 in a 96-well microplate for ThT fluorescence assay. The microplate was excited at 445 nm and the resulting emission fluorescence at 485 nm was measured using a microplate reader.

[5] = 24 h, read-out: % Inhibition (mean ± SD) n = 3, ThT fluorescence
[6] = 48 h, read-out: % Inhibition (mean ± SD) n = 3, ThT fluorescence
[7] = 72 h, read-out: % Inhibition (mean ± SD) n = 3, ThT fluorescence
[8] = TGFBIp-G623R, 320 mM, final time point

T2 sequence (Q15582 611-633 G623R limits assumed): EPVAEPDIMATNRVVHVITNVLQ
T3 sequence (Q15582 611-633 N622K limits assumed): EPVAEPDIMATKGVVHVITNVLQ

Compound	inhibition at 200000 µM [1, 5] [%]	inhibition at 200000 µM [1, 6] [%]	inhibition at 200000 µM [1, 7] [%]	inhibition at 200000 µM ([2]; 200 mM, 24 h) [%]	inhibition at 200000 µM ([2]; 200 mM, 48 h) [%]	inhibition at 200000 µM ([2]; 200 mM, 72 h) [%]	disruption of the β-sheet structure compared among the four osmolytes, CD ([2]; 200 mM)	fluorescent intensity under microscope, preformed fibrils [3]	inhibition at 200000 µM ([1]; TGFBIp-G623R, final time point, read-out: % Inhibition at final time point, ThT) [%]	% Inhibition at final time point, ThT [1, 8] [%]	inhibition at 320000 µM [1, 8] [%]	% Dissolution at final time point, CD ([2]; 200 mM) [%]	% Dissolution at final time point, CD ([2]; 320 mM) [%]	% Dissolution at final time point, ThT ([4]; 200 mM) [%]	% Dissolution at final time point, ThT ([4]; 200 mM, listed as taurine) [%]	% Dissolution at final time point, ThT ([4]; 320 mM) [%]	% Dissolution at final time point, ThT ([4]; 320 mM, listed as taurine) [%]
C[N+](C)(C)CC(=O)O [Betaine, betaine]	16 ± 3	26 ± 3	44	6 ± 1	24 ± 11	36											
OC[C@H]1O[C@H](OC[C@H]2O[C@H](O[C@]3(CO)O[C@H](CO)[C@@H](O)[C@@H]3O)[C@H](O)[C@@H](O)[C@@H]2O)[C@H](O)[C@@H](O)[C@H]1O [Raffinose, raffinose]	21 ± 6	32 ± 2	65	7 ± 7	48 ± 9	~58	highest disruption of the β-sheet structure										
CNCC(=O)O [Sarcosine, sarcosine]	20 ± 3	32 ± 2	56	12 ± 8	39 ± 6	41											
NCCS(=O)(=O)O [Taurine, taurine]	20 ± 6	34 ± 5	48	13 ± 6	40 ± 12	~54	highest disruption of the β-sheet structure	reduction in fluorescent intensity	41	60	61	49	69	83	83	88	88
